Test results from the CheMixHub ionic liquid set.
± gives the uncertainty stated by the source.

Assay: xn = mol fraction of the nth substance listed

C1CC[NH2+]C1.O=[N+]([O-])[O-] + CC1COC(=O)O1
100 kPa
Settings	electrical conductivity [S/m]	viscosity [mPa·s]
283.15 K, x2 = 0.38	–	23
298.15 K, x2 = 0.8865	0.99 ± 0.15	–
298.15 K, x2 = 0.8938	0.93 ± 0.15	–
313.15 K, x2 = 0	–	21
323.15 K, x2 = 0.5	–	6.1
333.15 K, x2 = 0.7	–	3.1
333.15 K, x2 = 0.78	–	2.6
343.15 K, x2 = 0.38	–	5.2
343.15 K, x2 = 0.6	–	3.4
343.15 K, x2 = 0.7	–	2.7
353.15 K, x2 = 0	–	9.3
353.15 K, x2 = 0.6	–	2.9
353.15 K, x2 = 0.7	–	2.3

C[NH+](C)C.O=S(=O)([N-]S(=O)(=O)C(F)(F)F)C(F)(F)F + CC1COC(=O)O1
298.15 K, 101 kPa
Settings	electrical conductivity [S/m]
x1 = 0.0001	0.003 ± 0.001
x1 = 0.0137	0.352 ± 0.014
x2 = 0.6243	1.61 ± 0.064
x2 = 0.7417	1.64 ± 0.066
x2 = 0.8037	1.53 ± 0.061
x2 = 0.979	0.476 ± 0.019

CC(O)C(=O)[O-].CCC[N+]1(C)CCN(C)CC1 + CC#N
298 K, 101 kPa
Settings	electrical conductivity [S/m]
x2 = 0.824	1.63 ± 0.03
x2 = 0.848	1.79 ± 0.04
x2 = 0.879	1.94 ± 0.04

C[NH+](C)C.O=S(=O)([N-]S(=O)(=O)C(F)(F)F)C(F)(F)F + CC#N
101 kPa
Settings	electrical conductivity [S/m]
298.15 K, x2 = 0.66	4.82 ± 0.19
303.15 K, x2 = 0.86	6.87 ± 0.28

Cn1cc[n+](CCCN)c1.F[B-](F)(F)F + CC#N
electrical conductivity [S/m], 101 kPa, frequency 3 MHz
Settings	x1 = 0.1001	x1 = 0.2005	x1 = 0.3	x1 = 0.399	x1 = 0.4996	x1 = 0.598	x1 = 0.6975	x1 = 0.7983	x1 = 0.8987	x1 = 1
288.15 K	1.69 ± 0.017	1.25 ± 0.013	0.915 ± 0.01	0.614 ± 0.01	0.416 ± 0.01	0.281 ± 0.01	0.168 ± 0.01	0.088 ± 0.01	0.044 ± 0.01	0.011 ± 0.01
293.15 K	1.94 ± 0.019	1.49 ± 0.015	1.103 ± 0.011	0.749 ± 0.01	0.519 ± 0.01	0.35 ± 0.01	0.211 ± 0.01	0.117 ± 0.01	0.062 ± 0.01	0.018 ± 0.01
298.15 K	2.243 ± 0.022	1.742 ± 0.017	1.309 ± 0.013	0.906 ± 0.01	0.625 ± 0.01	0.427 ± 0.01	0.267 ± 0.01	0.153 ± 0.01	0.085 ± 0.01	0.026 ± 0.01
303.15 K	2.56 ± 0.026	2.036 ± 0.02	1.535 ± 0.015	1.08 ± 0.011	0.746 ± 0.01	0.515 ± 0.01	0.329 ± 0.01	0.195 ± 0.01	0.112 ± 0.01	0.04 ± 0.01
308.15 K	2.89 ± 0.029	2.343 ± 0.023	1.79 ± 0.018	1.27 ± 0.013	0.874 ± 0.01	0.611 ± 0.01	0.402 ± 0.01	0.243 ± 0.01	0.144 ± 0.01	0.055 ± 0.01
313.15 K	3.24 ± 0.032	2.68 ± 0.027	2.06 ± 0.021	1.48 ± 0.015	1.021 ± 0.01	0.721 ± 0.01	0.487 ± 0.01	0.301 ± 0.01	0.182 ± 0.01	0.072 ± 0.01
318.15 K	3.622 ± 0.036	3.05 ± 0.031	2.36 ± 0.024	1.7 ± 0.017	1.17 ± 0.012	0.844 ± 0.01	0.58 ± 0.01	0.364 ± 0.01	0.225 ± 0.01	0.094 ± 0.01
323.15 K	4.04 ± 0.04	3.46 ± 0.035	2.68 ± 0.027	1.938 ± 0.019	1.344 ± 0.013	0.982 ± 0.01	0.692 ± 0.01	0.437 ± 0.01	0.276 ± 0.01	0.124 ± 0.01

viscosity [mPa·s], 101 kPa
Settings	x1 = 0.1001	x1 = 0.2005	x1 = 0.3	x1 = 0.399	x1 = 0.4996	x1 = 0.598	x1 = 0.6975	x1 = 0.7983	x1 = 0.8987	x1 = 1
288.15 K	18.13 ± 0.12	36 ± 0.22	55.18 ± 0.3	75.79 ± 0.58	98.1 ± 1	121.5 ± 1.6	147 ± 2.3	174.5 ± 3.1	202.6 ± 4	231.2 ± 4.9
293.15 K	13.81 ± 0.1	27.35 ± 0.17	42.52 ± 0.26	58.84 ± 0.34	76.44 ± 0.6	95.92 ± 0.99	116.8 ± 1.5	139.6 ± 2.1	161.9 ± 2.7	185.4 ± 3.4
298.15 K	10.64 ± 0.088	21.28 ± 0.14	33.13 ± 0.21	46.19 ± 0.28	60.38 ± 0.35	76.12 ± 0.59	93.68 ± 0.93	112 ± 1.4	130.2 ± 1.8	149.6 ± 2.4
303.15 K	8.386 ± 0.079	16.73 ± 0.12	26.24 ± 0.17	36.56 ± 0.23	48.34 ± 0.3	61.21 ± 0.36	75.42 ± 0.57	90.05 ± 0.86	104.8 ± 1.2	121.1 ± 1.6
308.15 K	6.804 ± 0.073	13.48 ± 0.1	21.1 ± 0.14	29.46 ± 0.19	38.98 ± 0.24	49.81 ± 0.3	61.47 ± 0.36	74.04 ± 0.55	86.51 ± 0.78	100.2 ± 1.1
313.15 K	5.588 ± 0.069	11.04 ± 0.09	17.16 ± 0.12	24.04 ± 0.16	32.08 ± 0.2	40.8 ± 0.25	50.47 ± 0.26	61.67 ± 0.36	71.62 ± 0.51	83.06 ± 0.71
318.15 K	4.761 ± 0.067	9.062 ± 0.082	14.08 ± 0.1	19.9 ± 0.13	26.59 ± 0.17	33.85 ± 0.21	41.94 ± 0.25	51.42 ± 0.27	59.82 ± 0.34	69.26 ± 0.47
323.15 K	4.016 ± 0.065	7.65 ± 0.076	11.81 ± 0.093	16.54 ± 0.12	22.05 ± 0.15	28.29 ± 0.18	35.74 ± 0.22	43.45 ± 0.26	50.53 ± 0.26	58.45 ± 0.32

CC(=O)[O-].CCCC[P+](CCCC)(CCCC)CCCC + CC(=O)[O-].CCCC[n+]1ccn(C)c1
101 kPa
Settings	viscosity [mPa·s]
313.15 K, x2 = 0.751	246 ± 16
323.15 K, x2 = 0.5018	169.2 ± 9.4

CC(=O)[O-].Cn1cc[nH+]c1 + CC(=O)[O-].C[NH+]1CCCC1
Settings	viscosity [mPa·s]
298.15 K, 100 kPa, x1 = 1	6.22 ± 0.14

CCOS(=O)(=O)[O-].CC[n+]1ccn(C)c1 + CC(=O)c1ccccc1
100 kPa, x2 = 0
Settings	viscosity [mPa·s]
313.15 K	40 ± 12
333.15 K	20.4 ± 6.1

CC[n+]1ccn(C)c1.F[P-](F)(F)(F)(F)F + CC(C)C[C@H](N)C(=O)O + O
100 kPa
Settings	electrical conductivity, 298.15 K [S/m]	electrical conductivity, 303.15 K [S/m]	electrical conductivity, 308.15 K [S/m]	viscosity, 298.15 K [mPa·s]	viscosity, 303.15 K [mPa·s]	viscosity, 308.15 K [mPa·s]
x2 = 0.0001802, x1 = 1.802e-05	0.011 ± 0.0011	0.0123 ± 0.0012	0.0135 ± 0.0014	0.925 ± 0.071	0.857 ± 0.07	0.783 ± 0.07
x2 = 0.0001803, x1 = 5.405e-05	0.0293 ± 0.0029	0.0326 ± 0.0033	0.0354 ± 0.0035	0.94 ± 0.071	0.862 ± 0.071	0.788 ± 0.07
x2 = 0.0001804, x1 = 9.008e-05	0.0464 ± 0.0046	0.0517 ± 0.0052	0.0561 ± 0.0056	0.955 ± 0.071	0.866 ± 0.071	0.793 ± 0.07
x2 = 0.0004522, x1 = 1.801e-05	0.0109 ± 0.0011	0.0122 ± 0.0012	0.0133 ± 0.0013	0.933 ± 0.071	0.864 ± 0.071	0.791 ± 0.07
x2 = 0.0004524, x1 = 5.403e-05	0.0295 ± 0.0029	0.0328 ± 0.0033	0.0353 ± 0.0035	0.946 ± 0.071	0.868 ± 0.071	0.795 ± 0.07
x2 = 0.0004526, x1 = 9.005e-05	0.0461 ± 0.0046	0.0514 ± 0.0051	0.0557 ± 0.0056	0.962 ± 0.071	0.876 ± 0.071	0.802 ± 0.07
x2 = 0.0007258, x1 = 1.801e-05	0.0111 ± 0.0011	0.0122 ± 0.0012	0.0135 ± 0.0014	0.94 ± 0.071	0.872 ± 0.071	0.799 ± 0.07
x2 = 0.0007262, x1 = 5.402e-05	0.0293 ± 0.0029	0.0326 ± 0.0033	0.0351 ± 0.0035	0.957 ± 0.071	0.879 ± 0.071	0.805 ± 0.07
x2 = 0.0007265, x1 = 9.003e-05	0.0458 ± 0.0046	0.051 ± 0.0051	0.0558 ± 0.0056	0.973 ± 0.071	0.885 ± 0.071	0.812 ± 0.07
x2 = 0.0009976, x1 = 1.8e-05	0.0106 ± 0.0011	0.0118 ± 0.0012	0.013 ± 0.0013	0.947 ± 0.071	0.88 ± 0.071	0.806 ± 0.07
x2 = 0.000998, x1 = 5.4e-05	0.0288 ± 0.0029	0.032 ± 0.0032	0.0348 ± 0.0035	0.964 ± 0.071	0.885 ± 0.071	0.811 ± 0.07
x2 = 0.0009985, x1 = 9e-05	0.0451 ± 0.0045	0.0505 ± 0.005	0.055 ± 0.0055	0.981 ± 0.071	0.895 ± 0.071	0.82 ± 0.07
x2 = 0.001273, x1 = 1.8e-05	0.011 ± 0.0011	0.0122 ± 0.0012	0.0134 ± 0.0013	0.955 ± 0.071	0.888 ± 0.071	0.814 ± 0.07
x2 = 0.001273, x1 = 5.399e-05	0.0285 ± 0.0029	0.0318 ± 0.0032	0.0345 ± 0.0034	0.973 ± 0.071	0.895 ± 0.071	0.821 ± 0.07
x2 = 0.001274, x1 = 8.998e-05	0.0449 ± 0.0045	0.0502 ± 0.005	0.0545 ± 0.0054	0.991 ± 0.071	0.904 ± 0.071	0.827 ± 0.07
x2 = 0.001546, x1 = 1.799e-05	0.0112 ± 0.0011	0.0123 ± 0.0012	0.0136 ± 0.0014	0.961 ± 0.071	0.895 ± 0.071	0.822 ± 0.07
x2 = 0.001547, x1 = 5.397e-05	0.0283 ± 0.0028	0.0315 ± 0.0032	0.0344 ± 0.0034	0.982 ± 0.071	0.905 ± 0.071	0.831 ± 0.07
x2 = 0.001547, x1 = 8.995e-05	0.0445 ± 0.0044	0.0493 ± 0.0049	0.0541 ± 0.0054	1 ± 0.071	0.912 ± 0.071	0.841 ± 0.07
